Assay results from patent US11945813B2, “5-substituted 4-amino-1H-benzo[c][1,2,6]thiadiazine 2,2-dioxides and formulations and uses thereof” (Firmenich Incorporated, priority 2018, dated 2024).

Molecular target: T1, T1R2/T1R3 taste receptor (Homo sapiens, UniProt Q8TE23)
T1 sequence (Q8TE23 20-839): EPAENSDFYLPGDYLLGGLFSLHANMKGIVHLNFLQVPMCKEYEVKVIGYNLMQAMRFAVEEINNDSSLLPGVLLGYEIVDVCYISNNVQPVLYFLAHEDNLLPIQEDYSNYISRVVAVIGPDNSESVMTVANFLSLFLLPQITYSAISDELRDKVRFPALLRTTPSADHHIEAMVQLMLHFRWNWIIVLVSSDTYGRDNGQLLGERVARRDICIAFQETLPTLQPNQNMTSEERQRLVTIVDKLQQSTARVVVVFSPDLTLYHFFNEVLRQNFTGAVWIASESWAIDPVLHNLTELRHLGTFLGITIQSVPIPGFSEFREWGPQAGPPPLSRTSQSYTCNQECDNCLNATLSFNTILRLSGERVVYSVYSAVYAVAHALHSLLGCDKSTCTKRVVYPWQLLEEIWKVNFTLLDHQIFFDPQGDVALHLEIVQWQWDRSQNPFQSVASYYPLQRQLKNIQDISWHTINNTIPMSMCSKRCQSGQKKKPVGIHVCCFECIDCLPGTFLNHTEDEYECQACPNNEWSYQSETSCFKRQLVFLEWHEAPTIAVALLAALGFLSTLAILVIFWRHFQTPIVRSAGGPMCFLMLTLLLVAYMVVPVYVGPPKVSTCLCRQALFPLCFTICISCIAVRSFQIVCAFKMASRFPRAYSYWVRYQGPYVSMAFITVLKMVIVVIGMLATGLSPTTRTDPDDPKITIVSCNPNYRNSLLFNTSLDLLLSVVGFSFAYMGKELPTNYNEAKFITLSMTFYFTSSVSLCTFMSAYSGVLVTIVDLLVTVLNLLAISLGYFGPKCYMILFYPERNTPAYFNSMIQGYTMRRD
T1 sequence (Q7RTX0 21-852 partner): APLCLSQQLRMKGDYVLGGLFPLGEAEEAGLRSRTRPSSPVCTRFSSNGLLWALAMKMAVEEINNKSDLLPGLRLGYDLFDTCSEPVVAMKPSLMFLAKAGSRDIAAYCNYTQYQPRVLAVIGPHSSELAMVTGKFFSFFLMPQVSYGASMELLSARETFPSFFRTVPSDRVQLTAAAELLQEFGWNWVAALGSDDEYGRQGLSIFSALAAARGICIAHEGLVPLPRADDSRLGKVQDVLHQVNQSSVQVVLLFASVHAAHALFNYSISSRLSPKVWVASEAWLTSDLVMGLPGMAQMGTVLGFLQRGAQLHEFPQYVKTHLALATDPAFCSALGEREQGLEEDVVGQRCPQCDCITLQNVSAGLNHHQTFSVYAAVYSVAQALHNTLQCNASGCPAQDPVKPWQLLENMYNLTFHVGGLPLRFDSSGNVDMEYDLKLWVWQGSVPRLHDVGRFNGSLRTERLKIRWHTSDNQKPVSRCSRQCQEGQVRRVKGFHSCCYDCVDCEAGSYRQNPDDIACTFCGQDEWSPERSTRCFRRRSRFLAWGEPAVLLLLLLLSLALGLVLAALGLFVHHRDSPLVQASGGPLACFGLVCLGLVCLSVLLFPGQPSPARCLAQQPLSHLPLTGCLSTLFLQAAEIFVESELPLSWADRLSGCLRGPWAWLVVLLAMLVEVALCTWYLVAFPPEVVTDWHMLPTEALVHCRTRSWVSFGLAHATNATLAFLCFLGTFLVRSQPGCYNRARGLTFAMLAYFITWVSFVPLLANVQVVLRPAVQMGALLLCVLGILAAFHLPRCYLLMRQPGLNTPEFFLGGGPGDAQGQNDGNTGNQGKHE
Test: Receptor-based assay: sweetener EC50 alone and with test compound (enhancement ratio)
Format: cell-based
Conditions: for Fructose Enhancement EC50 Ratio: sweetener fructose; for Sucralose Enhancement EC50 Ratio: sweetener sucralose; for Sucrose Enhancement EC50 Ratio: sweetener sucrose
Method: Potencies (EC50 values) for the sweeteners sucrose, sucralose, and fructose were measured against the T1R2/T1R3 taste receptor. EC50 was determined using the sweetener alone and in the presence of 3 μM, 10 μM, or 50 μM of test compound. EC50 ratios were calculated by the ratio of potency with and without the test compound. An “A” value indicates an enhancement ratio of greater than 20. A “B” value indicates an enhancement ratio from 10 to 20. A “C” value indicates an enhancement ratio greater than 1 and less than 10.

SMILES | Fructose Enhancement EC50 Ratio (10 μM test compound) | Fructose Enhancement EC50 Ratio (50 μM test compound) | Sucralose Enhancement EC50 Ratio (10 μM test compound) | Sucralose Enhancement EC50 Ratio (50 μM test compound) | Sucrose Enhancement EC50 Ratio (3 μM test compound) | Sucrose Enhancement EC50 Ratio (10 μM test compound) | Sucrose Enhancement EC50 Ratio (50 μM test compound)
COCCNc1nccc(NC(C)(C)COc2cccc3c2C(N)=NS(=O)(=O)N3)n1 [Compound 206] | C (A “C” value indicates an enhancement ratio greater than 1 and less than 10) | C (A “C” value indicates an enhancement ratio greater than 1 and less than 10) | B (A “B” value indicates an enhancement ratio from 10 to 20) | A (An “A” value indicates an enhancement ratio of greater than 20) | C (A “C” value indicates an enhancement ratio greater than 1 and less than 10) | C (A “C” value indicates an enhancement ratio greater than 1 and less than 10) | C (A “C” value indicates an enhancement ratio greater than 1 and less than 10)
CCCNc1nccc(NC(C)(C)COc2cccc3c2C(N)=NS(=O)(=O)N3)n1 [Compound 208] | C (A “C” value indicates an enhancement ratio greater than 1 and less than 10) | C (A “C” value indicates an enhancement ratio greater than 1 and less than 10) | A (An “A” value indicates an enhancement ratio of greater than 20) | A (An “A” value indicates an enhancement ratio of greater than 20) | C (A “C” value indicates an enhancement ratio greater than 1 and less than 10) | C (A “C” value indicates an enhancement ratio greater than 1 and less than 10) | C (A “C” value indicates an enhancement ratio greater than 1 and less than 10)
Cc1cc(C)nc(N2CCC[C@H](COc3cccc4c3C(N)=NS(=O)(=O)N4)C2)n1 [Compound 300, (S)-4-amino-5-((1-(4,6-dimethylpyrimidin-2-yl)piperidin-3-yl)methoxy)-1H-benzo[c][1,2,6]thiadiazine 2,2-dioxide] |  |  | A (An “A” value indicates an enhancement ratio of greater than 20) | A (An “A” value indicates an enhancement ratio of greater than 20) | C (A “C” value indicates an enhancement ratio greater than 1 and less than 10) | C (A “C” value indicates an enhancement ratio greater than 1 and less than 10) | C (A “C” value indicates an enhancement ratio greater than 1 and less than 10)
NC1=NS(=O)(=O)Nc2cccc(OC[C@H]3CCCN(c4cccc(C(=O)O)n4)C3)c21 [Compound 301, (S)-6-(3-(((4-amino-2,2-dioxido-1H-benzo[c][1,2,6]thiadiazin-5-yl)oxy)methyl)piperidin-1-yl)picolinic acid] |  |  | A (An “A” value indicates an enhancement ratio of greater than 20) | A (An “A” value indicates an enhancement ratio of greater than 20) | C (A “C” value indicates an enhancement ratio greater than 1 and less than 10) | C (A “C” value indicates an enhancement ratio greater than 1 and less than 10) | C (A “C” value indicates an enhancement ratio greater than 1 and less than 10)
NC1=NS(=O)(=O)Nc2cccc(OC[C@H]3CCCN(c4ccc(C(=O)O)cn4)C3)c21 [Compound 302] | C (A “C” value indicates an enhancement ratio greater than 1 and less than 10) | C (A “C” value indicates an enhancement ratio greater than 1 and less than 10) | A (An “A” value indicates an enhancement ratio of greater than 20) | A (An “A” value indicates an enhancement ratio of greater than 20) | C (A “C” value indicates an enhancement ratio greater than 1 and less than 10) | C (A “C” value indicates an enhancement ratio greater than 1 and less than 10) | C (A “C” value indicates an enhancement ratio greater than 1 and less than 10)
NC1=NS(=O)(=O)Nc2cccc(OC[C@H]3CCCN(c4cc(C(=O)O)ccn4)C3)c21 [Compound 303] |  | C (A “C” value indicates an enhancement ratio greater than 1 and less than 10) | C (A “C” value indicates an enhancement ratio greater than 1 and less than 10) | A (An “A” value indicates an enhancement ratio of greater than 20) | C (A “C” value indicates an enhancement ratio greater than 1 and less than 10) | C (A “C” value indicates an enhancement ratio greater than 1 and less than 10) | C (A “C” value indicates an enhancement ratio greater than 1 and less than 10)
Cc1cnc(N2CCC[C@H](COc3cccc4c3C(N)=NS(=O)(=O)N4)C2)nc1 [Compound 304] | C (A “C” value indicates an enhancement ratio greater than 1 and less than 10) | C (A “C” value indicates an enhancement ratio greater than 1 and less than 10) | A (An “A” value indicates an enhancement ratio of greater than 20) | A (An “A” value indicates an enhancement ratio of greater than 20) | C (A “C” value indicates an enhancement ratio greater than 1 and less than 10) | C (A “C” value indicates an enhancement ratio greater than 1 and less than 10) | C (A “C” value indicates an enhancement ratio greater than 1 and less than 10)
NC1=NS(=O)(=O)Nc2cccc(OC[C@H]3CCCN(c4ncc(F)cn4)C3)c21 [Compound 305] | C (A “C” value indicates an enhancement ratio greater than 1 and less than 10) | C (A “C” value indicates an enhancement ratio greater than 1 and less than 10) | A (An “A” value indicates an enhancement ratio of greater than 20) | A (An “A” value indicates an enhancement ratio of greater than 20) | C (A “C” value indicates an enhancement ratio greater than 1 and less than 10) | C (A “C” value indicates an enhancement ratio greater than 1 and less than 10) | C (A “C” value indicates an enhancement ratio greater than 1 and less than 10)
